In brackets after ≈: the same amount, converted by molar mass.
Conditions: buffer; pH 7.4; 200.0 µM

Q: For `O=C(COC(=O)c1ccc(F)c(S(=O)(=O)N2CCOCC2)c1)NCc1ccc(F)cc1`, which solubility kinetic is on record?
A: > 68.2 µg/mL

Q: With `O=Cc1cn(CCOc2ccccc2)c2ccccc12` as the molecule, how does the solubility kinetic read?
A: 12.9 µg/mL (≈ 48.6 µM)

Q: For `CCOCCCNCC(=O)Nc1cc(S(=O)(=O)N2CCOCC2)ccc1N1CCOCC1`, which solubility kinetic is on record?
A: > 70.6 µg/mL

Q: With `CC(CCc1ccccc1)NC(=O)CN1CCc2ccccc2C1` (centres undefined) as the molecule, how does the solubility kinetic read?
A: 47.3 µg/mL (≈ 147 µM)

Q: For `CCNC(=S)Nc1ccc(Cl)c([N+](=O)[O-])c1`, which solubility kinetic is on record?
A: > 39 µg/mL

Q: With `CCOP(=O)(OCC)C(NC(=O)c1cccc(C)c1)C(Cl)(Cl)Cl` (centres undefined) as the molecule, how does the solubility kinetic read?
A: 56.3 µg/mL (≈ 140 µM)

Q: With `CC1CCCCC12NC(=O)N(CC(=O)NCc1ccco1)C2=O` (centres undefined) as the molecule, how does the solubility kinetic read?
A: > 47.9 µg/mL

Q: For `COc1ccc(CCNc2nc(-c3ccc(O)cc3)cs2)cc1OC`, which solubility kinetic is on record?
A: 29.2 µg/mL (≈ 81.9 µM)

Q: With `C[C@@H]1NC(=O)N[C@@H]1CCCCCC(=O)O` as the molecule, how does the solubility kinetic read?
A: > 32.1 µg/mL

Q: Which solubility kinetic does the source give for `CCC1CN(C(=O)NCc2ccc(F)cc2)c2cc(C)ccc2O1` (centres undefined) here?
A: 4.3 µg/mL (≈ 13.1 µM)

Q: Which solubility kinetic does the source give for `NC(=O)C1=CN(Cc2ccc(Cl)cc2)CCC1C(F)(F)F` (centres undefined) here?
A: > 47.8 µg/mL

Q: With `COc1cc2c(cc1OC)CN(C(=O)CCNC(=O)c1ccccc1Cl)CC2` as the molecule, how does the solubility kinetic read?
A: > 60.4 µg/mL

Q: For `C/C(N)=C(/C#N)C(=O)COC(=O)Cc1coc2cc(C)ccc12`, which solubility kinetic is on record?
A: 10.2 µg/mL (≈ 32.7 µM)

Q: With `COC1C(C)=C(C)C(=O)N1Cc1ccc(F)cc1` (centres undefined) as the molecule, how does the solubility kinetic read?
A: 31.9 µg/mL (≈ 128 µM)

Q: For `O=C(CSc1nc2ncc(Cl)cc2[nH]1)N1CCC(Cc2ccccc2)CC1`, which solubility kinetic is on record?
A: 1 µg/mL (≈ 2.49 µM)

Q: Which solubility kinetic does the source give for `CC1CCN(C(=O)CN(Cc2ccc(F)cc2)S(C)(=O)=O)CC1` here?
A: > 51.4 µg/mL

Q: Which solubility kinetic does the source give for `CN(C)S(=O)(=O)c1cccc(NC(=O)COC(=O)c2ccc3ccccc3n2)c1` here?
A: 40 µg/mL (≈ 96.7 µM)

Q: For `O=S(=O)(c1ccc(-c2ccon2)s1)N1CCN(c2ccccn2)CC1`, which solubility kinetic is on record?
A: 1.1 µg/mL (≈ 2.92 µM)

Q: Which solubility kinetic does the source give for `Cc1ccc(Cn2c(C)nc3ccc([N+](=O)[O-])cc3c2=O)cc1` here?
A: 1.5 µg/mL (≈ 4.85 µM)

Q: With `O=C1CCC([N+](=O)[O-])C(c2ccccc2Br)N1` (centres undefined) as the molecule, how does the solubility kinetic read?
A: > 44.9 µg/mL

Q: With `Cc1ccc(C(=O)N2CCN(C)CC2)cc1[N+](=O)[O-]` as the molecule, how does the solubility kinetic read?
A: > 39.5 µg/mL

Q: Which solubility kinetic does the source give for `CCOC(=O)c1cc(C#N)c(=S)[nH]c1C` here?
A: 33.1 µg/mL (≈ 149 µM)

Q: For `CCn1c(/C=C2\C(=O)N(C(C)C)c3ccccc32)nc2ccccc2c1=O`, which solubility kinetic is on record?
A: 22.2 µg/mL (≈ 61.8 µM)

Q: Which solubility kinetic does the source give for `O=C(CSc1cccc[n+]1[O-])NC1CCCCC1` here?
A: > 40 µg/mL

Q: For `COc1cc2c(cc1OC)CN(C(=O)c1ccc3[nH]c(C)c(C)c3c1)CC2`, which solubility kinetic is on record?
A: 6.9 µg/mL (≈ 18.9 µM)

Q: Which solubility kinetic does the source give for `COc1ccccc1CNC(=O)COC(=O)c1cccs1` here?
A: 8.4 µg/mL (≈ 27.5 µM)

Q: With `Cc1ccc(CNC(=O)C2COc3ccccc3O2)cc1` (centres undefined) as the molecule, how does the solubility kinetic read?
A: 20.1 µg/mL (≈ 70.9 µM)

Q: With `O=C1c2ccccc2NC(c2cccc([N+](=O)[O-])c2)N1O` (centres undefined) as the molecule, how does the solubility kinetic read?
A: > 42.8 µg/mL

Q: For `O=C(NCC1CCCO1)c1cc2c(s1)CCCC2` (centres undefined), which solubility kinetic is on record?
A: > 39.8 µg/mL

Q: For `O=C(CSc1nc2ccccc2o1)N/N=C/c1ccc(C(=O)O)cc1`, which solubility kinetic is on record?
A: > 53.3 µg/mL

Q: Which solubility kinetic does the source give for `CCCn1c(CCNC(=O)c2ccco2)nc2ccccc21` here?
A: 41.7 µg/mL (≈ 140 µM)

Q: For `C=CCn1c(SCC(=O)Nc2c(C)n(C)n(-c3ccccc3)c2=O)nnc1-c1cccnc1`, which solubility kinetic is on record?
A: > 69.2 µg/mL

Q: For `O=C(OCc1nc2ccccc2s1)c1ccccc1O`, which solubility kinetic is on record?
A: 4.8 µg/mL (≈ 16.8 µM)

Q: With `CC(=O)Nc1ccc(NC2=CC(=O)c3ccccc3C2=O)cc1` as the molecule, how does the solubility kinetic read?
A: 1.1 µg/mL (≈ 3.59 µM)

Q: Which solubility kinetic does the source give for `O=C(O)/C=C/C(=O)Nc1ccc(-n2nccc2C(F)(F)F)cc1` here?
A: > 48.8 µg/mL

Q: With `CC(NC(=O)Cc1ccsc1)c1ccc(Cl)cc1Cl` (centres undefined) as the molecule, how does the solubility kinetic read?
A: 3.8 µg/mL (≈ 12.1 µM)

Q: Which solubility kinetic does the source give for `CN(Cc1ccccc1)S(=O)(=O)c1ccc(N2CCOCC2)nc1` here?
A: 2.5 µg/mL (≈ 7.2 µM)

Q: With `Cc1ccc(C(=O)C2CCN(S(=O)(=O)c3c(C)noc3C)CC2)cc1` as the molecule, how does the solubility kinetic read?
A: 13.6 µg/mL (≈ 37.5 µM)

Q: Which solubility kinetic does the source give for `NC(=O)c1cc(NC(=O)COC(=O)CCCN2C(=O)c3cccc4cccc(c34)C2=O)cc(C(N)=O)c1` here?
A: 4.9 µg/mL (≈ 9.75 µM)

Q: With `CCCn1c(=O)c(-c2nc3ccccc3[nH]2)c(O)c2ccccc21` as the molecule, how does the solubility kinetic read?
A: 0.4 µg/mL (≈ 1.25 µM)

Q: With `NS(=O)(=O)c1ccc(NC(=O)COC(=O)Cn2cnc3ccccc3c2=O)cc1` as the molecule, how does the solubility kinetic read?
A: 18 µg/mL (≈ 43.2 µM)

Q: Which solubility kinetic does the source give for `Cc1ccc(C(=O)NCCN2CCOCC2)cc1[N+](=O)[O-]` here?
A: > 44 µg/mL

Q: Which solubility kinetic does the source give for `CC(=O)OCc1c(C)cc(C)c(/C=C(/C#N)C(N)=O)c1C` here?
A: > 42.9 µg/mL

Q: With `COCCSc1ccccc1C(=O)Nc1cc([N+](=O)[O-])ccc1OC` as the molecule, how does the solubility kinetic read?
A: 4.1 µg/mL (≈ 11.3 µM)

Q: For `CN(C)CCCNC(=O)c1cc(C(=O)c2ccccc2)c[nH]1`, which solubility kinetic is on record?
A: > 44.9 µg/mL

Q: Which solubility kinetic does the source give for `CC(C)c1nc(SCC(=O)NC2CCCCC2)c2ccccc2n1` here?
A: 1.8 µg/mL (≈ 5.24 µM)

Q: Which solubility kinetic does the source give for `CCOC(=O)C1CCN(C(=O)c2ccc(OC3CCN(C(=O)COC)CC3)cc2)CC1` here?
A: 45 µg/mL (≈ 104 µM)

Q: With `CC(=O)N1CCOCCOCCOCC1` as the molecule, how does the solubility kinetic read?
A: > 32.6 µg/mL

Q: Which solubility kinetic does the source give for `CC(C)c1ccc(CSc2ccc(S(=O)(=O)N3CCOCC3)cn2)cc1` here?
A: 1.9 µg/mL (≈ 4.84 µM)

Q: For `CCc1ccc(NC(=S)N2CCN(c3cccc(OC)c3)CC2)cc1`, which solubility kinetic is on record?
A: 0.3 µg/mL (≈ 0.844 µM)

Q: For `CCn1c(C)cc(=O)cc1-c1ccc(Cl)cc1`, which solubility kinetic is on record?
A: > 37.2 µg/mL

Q: For `CC(C(=O)N1CCCC1)N1CCN(S(=O)(=O)c2ccccc2)CC1` (centres undefined), which solubility kinetic is on record?
A: 47.1 µg/mL (≈ 134 µM)

Q: Which solubility kinetic does the source give for `O=C(COC(=O)CCC(=O)c1ccc(F)cc1)NCc1ccc(Cl)cc1` here?
A: 10.6 µg/mL (≈ 28.1 µM)

Q: With `CN1CCN(Cc2cccc3ncccc23)CC1CCO` (centres undefined) as the molecule, how does the solubility kinetic read?
A: > 42.8 µg/mL

Q: Which solubility kinetic does the source give for `Cc1cc(C(=O)NCc2ccco2)sc1C` here?
A: > 35.3 µg/mL

Q: Which solubility kinetic does the source give for `Cc1cccc(NC(=O)c2cccc(NC(=O)c3ccco3)c2)c1C` here?
A: 0.5 µg/mL (≈ 1.5 µM)

Q: For `COc1cccc(C(=O)NC2CCNCC2)c1`, which solubility kinetic is on record?
A: 31.4 µg/mL (≈ 134 µM)

Q: Which solubility kinetic does the source give for `Cn1c(=O)n(CCc2ccccc2)c2ccccc21` here?
A: 29.2 µg/mL (≈ 116 µM)

Q: With `CC(=O)Nc1ccccc1C(F)(F)F` as the molecule, how does the solubility kinetic read?
A: 5.5 µg/mL (≈ 27.1 µM)

Reference: PubChem BioAssay AID1996
